Entries after “also recorded” stand apart in the source; their conditions may differ. Like-named read-outs stand apart in the source and are kept apart here.
Tests used:
CD45+ lymphocytes = experiment: 7AAD viability of lymphocytes in primary bone marrow culture of myeloma patients; assay type: cell-based, human
Procedure: (§1) Finally, the authors of the present invention evaluated the toxicity of cannabinoid agent WIN 55,212-2, which was determined in terms of cell viability by means of two types of assays, one based on the drop in 3(4,5dimethyl-2-thiazoyl)-2,5-diphenyltetrazolic bromide (MTT), and another one based on the interaction of 7AAD. Primary cultures of mononuclear cells obtained from peripheral blood from healthy donors (CD34+ hematopoietic progenitors) and from bone marrow of patients suffering multiple myeloma (CD64+, granulocytes (B), CD45+, lymphocytes (C) and CD38+, plasma cells (D)) were used. […]
(§2) For the viability analysis by means of flow cytometry, the cells were treated with suitably labeled monoclonal antibodies for the identification of each of the cell types used. Once labeled; the cells were exposed for 15 min to 7AAD ([…]) to evaluate cell viability; the reading was performed in the cytometer and analyzed with the computer program adapted for the cytometer. At least 100,000 events were acquired, and the mean fluorescence intensity was obtained.
(§3) The authors of the present invention evaluated the toxicity of cannabinoid agent WIN 55,212-2, which was determined in terms of cell viability by means of two types of assays, one based on the drop in 3(4,5dimethyl-2-thiazoyl)-2,5-diphenyltetrazolic (MTT) bromide, and another one based on the interaction of the 7AAD. […]

[1] = system: multiple myeloma cell line MM1.S; experiment: MTT cell viability, multiple myeloma cell line MM1.S; assay type: cell-based
Procedure: (§4) In this sense, in order to carry out these assays the authors incubated the myeloma cell line MM1.S at different concentrations with the cannabinoid agent WIN 55-212,2 for 48 and 96 hours, and cell viability was determined by means of MTT metabolization. Mean proliferation values of untreated control cell cultures were taken as 100%. The data corresponds to the means+/−the standard deviation of the triplicates of each of the 4 assays performed. […] Cell viability also drops after 96 hours of exposure to the drug at the same concentrations.
(§5) The method for the determination of cell viability by means of the MTT assay is based on the capacity that viable cells have of metabolizing 3-(4,5-dimethylthiazol-2-yl)-2,5-diphenyltetrazol (MTT) bromide. The metabolic reduction of MTT due to the action of the mitochondrial enzyme, succinate dehydrogenase, gives rise to the insoluble and colored form called formazan, which can be quantified by means of spectrocolorimetry. The amount of living cells is proportional to the optical density resulting.
(§6) After incubation with cannabinoids, 10 microliters of MTT were added to each well and were incubated 2-4 hours in the same conditions. The reaction is subsequently stopped, the crystallized formazan is solubilized and optical density was determined at 450 nm in a plate spectrophotometer. All the assays were performed in triplicate.
as §4, with “incubated” for “incubated the”, “the means +/− the” for “the means+/−the”, “drug ay” for “drug at”

CD38+ plasma cells = experiment: 7AAD viability of plasma cells in primary bone marrow culture of myeloma patients; assay type: cell-based, human
Procedure: Finally, the authors of the present invention evaluated the toxicity of cannabinoid agent WIN 55,212-2, which was determined in terms of cell viability by means of two types of assays, one based on the drop in 3(4,5dimethyl-2-thiazoyl)-2,5-diphenyltetrazolic bromide (MTT), and another one based on the interaction of 7AAD. Primary cultures of mononuclear cells obtained from peripheral blood from healthy donors (CD34+ hematopoietic progenitors) and from bone marrow of patients suffering multiple myeloma (CD64+, granulocytes (B), CD45+, lymphocytes (C) and CD38+, plasma cells (D)) were used.
The plasma cells, granulocytes and lymphocytes were obtained from bone marrow samples from patients with multiple myeloma after hypotonic lysis with ammonium chloride (0.16 M in 0.17 M Tris, pH 7.6) for 10 min at room temperature, for the purpose of removing the erythrocyte cell population. The cell suspension resulting from lysis, which only contains mononuclear cells, was seeded in multiwell plates at the same cell density as the progenitor cells using supplemented RPMI medium plus 20% fetal bovine serum.
The primary cultures were incubated in the presence and absence of the cannabinoid agent WIN 55,212-2 at different concentrations. […]
as §2, §3

[2] = system: CD64+ granulocytes (polymorphonuclear cells); experiment: 7AAD viability of granulocytes in primary bone marrow culture of myeloma patients; assay type: cell-based, human; details: 0.5-50 micromol, 18 h
Procedure: as §1, §2, §3

[3] = system: CD34+ hematopoietic progenitors; experiment: MTT cytotoxicity on CD34+ hematopoietic progenitors from healthy donors; assay type: cell-based, human; details: CD34+ hematopoietic progenitors of healthy donors, 0.5-50 micromol, 12 or 18 h
Procedure: as §1
as §5, with “The amount of living cells is proportional to the optical density resulting.” left out
After incubation with cannabinoids, 10 microliters of MTT were added to each well and were incubated 2-4 hours in the same conditions. The reaction is subsequently stopped, the crystallized formazan is solubilized and optical density was determined at 450 nm in a plate spectrophotometer. […]

myeloma cell line U266 [4] = experiment: MTT cell viability, myeloma cell line U266; assay type: cell-based; details: for cytotoxicity at 50 µM: Homo sapiens
Procedure: In order to determine the effect of the cannabinoid compound WIN 55,212-2, myeloma cell line U266 was incubated for a period of 48 and 96 hours with increasing concentrations of WIN 55,212-2 between 0.5 and 50 uM; cell viability was determined by means of the MTT metabolization. The MTT assay is based on the capacity of the mitochondrial enzyme, succinate dehydrogenase, of viable cells for transforming the tetrazolium salt MTT into a blue-colored product, MTT formazan, which is proportional to the number of living cells present. The mean proliferation values of the untreated control cell cultures were taken as 100%.
as §5, §6
To determine the effect of cannabinoid compound WIN 55,212-2, myeloma cell line U266 was incubated for a period of 48 and 96 hours with increasing concentrations of WIN 55,212-2 between 0.5 and 50 uM; cell viability was determined by means of MTT metabolization. The MTT assay is based on the capacity of the mitochondrial enzyme, succinate dehydrogenase, of viable cells to transform tetrazolium salt MTT into a blue-colored product, formazan MTT, which is proportional to the number of living cells present. Mean proliferation values of untreated control cell cultures were taken as 100%.

myeloma cell line U266 [5] = experiment: Cell viability by flow cytometry (7AAD labeling), U266; assay type: cell-based; details: U266, 7AAD flow cytometry, 48 h
Procedure: These same assays were repeated incubating the myeloma cell line U266 for a period of 48 hours with increasing concentrations of WIN 55,212-2 between 0.5 and 50 uM.
as §2
These same assays were repeated, incubating myeloma cell line U266 for a period of 48 hours with increasing concentrations of WIN 55,212-2 between 0.5 and 50 uM. Nevertheless, cell viability was determined by means of flow cytometry instead of by means of MTT metabolization.

SMILES: Cc1c(C(=O)c2cccc3ccccc23)c2cccc3c2n1[C@H](CN1CCOCC1)CO3 [WIN 55,212-2, (R)-(+)-[2,3-Dihydro-5-methyl-3-(4-morpholinylmethyl)pyrrolo[1,2,3-de]-1,4 benzoxazin-6-yl]-1-naphtalenylmethanone]
- loss of viability (CD45+ lymphocytes; 0.5-50 micromol, 12 or 18 h): only detected at the highest dose
- drop in cell viability (CD45+ lymphocytes; 7AAD, 18 h, 50 uM): 40%
- sensitivity of cell line MM1.S compared with cell line U266 ([1]; 48 and 96 h): more sensitive
- concentration after which cell viability noticeably dropped ([1]; MM1.S, 48 h): greater than 1 uM
- cytotoxicity ([1]; MM1.S, 48 h, 10 uM, 20 uM and 50 uM): greater than 50%
- cell viability after longer incubation ([1]; MM1.S, 96 h, same concentrations as at 48 h): also drops; also recorded: also affected
- drop in cell viability at 96 h compared with 48 h ([1]; MM1.S, 96 h vs 48 h): lower than at short incubation times
- cytotoxicity at 50 µM (CD38+ plasma cells; Homo sapiens, 18 h, read-out: reduction of cell viability): > 80%
- doses producing a drastic drop in cell viability (CD38+ plasma cells; plasma cells, bone marrow primary culture, 12 or 18 h): greater than 10 uM
- population of plasma cells after incubation (CD38+ plasma cells; plasma cells, bone marrow primary culture, 18 h, 20 uM and 50 uM): drastically reduced
- cell viability [2]: not affected
- cell viability [3]: not affected
- cytotoxicity at 50 µM (myeloma cell line U266 [4]; U-266, 48 h, read-out: inhibition of cell viability, U266, MTT, 48 h, 50 uM): ~60%
- cytotoxicity at 50 µM (myeloma cell line U266 [4]; U-266, 96 h, read-out: inhibition (drop) of cell viability, U266, MTT, 96 h, 50 uM): ~80%
- cell viability drops to (myeloma cell line U266 [4]; U266, MTT, 48 h, 10 uM and 20 uM, untreated control = 100%): 40%
- inhibition of cell viability (myeloma cell line U266 [4]; U266, MTT, 48 h, between 10 uM and 20 uM): about 40%
- concentration from which a cytotoxic effect (significant drop in cell viability, p<0.05) is seen (myeloma cell line U266 [5]): ≥ 10 µM

From patent US10045994B2, “Agents for treating multiple myeloma” (SERVICIO ANDALUZ DE SALUD, priority 2013, dated 2018)
